# In patent publication US6440672B1, “Compositions and methods for the inhibition of MUC-5 mucin gene expression” (The Regents of the University of California, priority 1998, dated 2002):
# Assays:
# [1] = system: MUC 5AC 5' regulatory region (M4-2 luciferase reporter gene construct) in HM3 cells; assay: Inhibition of smoke-induced luciferase activity in HM3 cells transfected with M4-2 reporter construct; assay type: cell-based, human
# Excerpt: A DNA fragment extending from −3752 bp to +68 bp was cloned into the MluI/Smal site of the pGL3 vector (Promega). pGL3 contains a luciferase gene downstream from the Smal site. This construct, referred to as M4-2, was deposited with the American Type Culture Collection as ATCC designation 98701. M4-2 was co-transfected with pcDNA3, containing the neomycin resistance gene, into the epithelial cell line HM3. G418-selected colonies were pooled, expanded, and used in luciferase assays.
# HM3 colon carcinoma cells (Kuan, et al. (1987) Cancer Res. 47:5715-5724) or NCIH292 lung carcinoma cells (Levine, et al. (1995) Am. J Respir. Disease 12:196-204) were transfected with the 4.0 Kb MUC 5AC reporter gene construct, M4-2, or the −614 construct from Example 2. Transfection was carried out essentially as described in Felgner et al. (1987), supra. In brief, 2 μl lipofectamine and 1 μg DNA were added to, approximately 5×10^6 cells in 100 μl of Optimen (Gibco) and incubated at room, temperature for about 30 minutes. The mixture was then diluted to 1 ml and added to one culture well of a 6 well plate. G418-selected colonies were pooled, expanded and used in luciferase assays.
# Environmental tobacco smoke was used as a mucomone. Culture medium DME-F 12 (Dulbecco's Modified Eagle's:Haam's F12 at 1:1) was exposed to tobacco smoke at various concentrations, for 6 hours. Exposure of the medium was carried out in open culture dishes in an enclosed container into which tobacco smoke produced by burning cigarettes was introduced in a controlled manner. Smoke concentration was measured in units of total suspended particles/ml (TSP/ml). Transfected cells were transferred into the smoke-exposed medium (in 6-well plates, 5×10^5 cells per well) and incubated for various times. The cells were then harvested, lysed and the luciferase activity determined as described in Li et al. (1997).
# Several possible inhibitors of mucomone-induced mucin production were tested for their effect on the smoke induced luciferase activity described in Example 3. Inhibitors tested included the inhibitors Genistein (Calbiochem), anti-MEK (PD98059; Alessi et al. 1995), PKC-I (Bisindolymaleimide) and PKA-l (KT 5720, Calbiochem). HM3 cells transfected with the 4.0 KB MUC 5AC construct, M4-2, were incubated in smoke-exposed medium as described in Example 3. The inhibitors were added to the cells at the concentrations indicated in Table 2 for various times before the cells were transferred to the smoke medium. Additional inhibitor was added to the smoke medium after the cells were transferred.
# [2] = system: MUC 2 gene transcription in epithelial cells; settings: epithelial cells pre-incubated with inhibitor; cited from earlier work
smiles,measurement,setting,value
COc1cccc(-c2cc(=O)c3ccccc3o2)c1N [PD98059],"relative luciferase activity (RLA) induced by smoke medium, with vs without inhibitor","[1]; PD98059 50-100 μM, added 1 hr before smoke medium",lower
CCCCCCOC(=O)[C@]1(O)C[C@@H]2O[C@@]1(C)n1c3ccccc3c3c4c(c5c6ccccc6n2c5c31)C(=O)NC4 [KT 5720],"relative luciferase activity (RLA) induced by smoke medium, with vs without inhibitor","[1]; KT 5720 0.1 to 0.5 μM, added 15 min-1 hr before smoke medium",lower
CN(C)CCCn1cc(C2=C(c3c[nH]c4ccccc34)C(=O)NC2=O)c2ccccc21 [Bisindolymaleimide],"relative luciferase activity (RLA) induced by smoke medium, with vs without inhibitor","[1]; Bisindolymaleimide 2.5 nM to 10 nM, added 1 hr before smoke medium",lower
O=c1c(-c2ccc(O)cc2)coc2cc(O)cc(O)c12 [Genistein],effect of pre-incubation on the PA LPS-induced increase in MUC 2 transcription,[2],abolished the increase in transcription
same,"relative luciferase activity (RLA) induced by smoke medium, with vs without inhibitor","[1]; Genistein 30 μM, added 30 min-2 hr before smoke medium",lower
